{"source": "patent US20030195350A1", "about": "“Individualization of therapy with antiviral agents” (priority 2001, published 2003)", "key": {"[1]": {"conditions": "cited from earlier work"}, "AAMU-Ab": {"system": "AAMU-Ab", "assay": "Competitive antigen ELISA, cross-reactivity of AAMU-Ab", "assay_type": "binding, rabbit", "conditions": "0 = absence of inhibition or inhibition no higher than 40% at 5 × 10^−3 M", "method": "(§1) Buffers and water without additives are filtered through millipore filters and kept for 1 week. BSA, antibodies, Tween™ 20 and horse radish peroxidase conjugates are added to these buffers and water just prior to use. Urine samples are usually collected 4 hours after drinking a cup of coffee (instant or brewed with approximately 100 mg of caffeine per cup) and stored at −80° C. The urine samples are diluted 10 times with sodium phosphate buffer (620 mosm, pH 7.50) and are subsequently diluted with water to give concentrations of AAMU and 1X no higher than 3×10^−6 M in the ELISA. All the pipettings are done with an eight-channel pipette, except those of the antibody and sample solutions. Starting with the last well, 100 μL of a carbonate buffer (100 mM, pH 9.6) containing 2.5 μg mL^−1 antibodies are added to each well. After 90 min. at room temperature, the wells are washed three times with […] of TPB: isotonic sodium phosphate buffer (310 mosm, pH 7.50) containing 0.05% Tween™ 20.\n(§2) After the initial wash, unoccupied sites are blocked by incubation for 90 min. at room temperature with 100 μL TBP containing 3% BSA. The wells are washed four times with 100 μL TPB. […] The microplate is gently shaken with an orbital shaker at room temperature for 3-4 hours. The wells are washed three times with 100 μL TPB containing 1% BSA and three times with water containing 0.05% Tween™ 20. To the washed plate is added 150 μL of a substrate buffer composed of citric acid (25 mM) and sodium phosphate dibasic buffer (50 mM, pH 5.0) containing 0.06% hydrogen peroxide and 0.04% o-phenylenediamine hydrochloride.\n(§3) Buffers and water without additives were filtered through millipore filters and kept for 1 week. BSA, antibodies, Tween™ 20 and horse radish peroxidase conjugates were added to these buffers and water just prior to use. Urine samples were usually collected 4 hours after drinking a cup of coffee (instant or brewed with approximately 100 mg of caffeine per cup) and stored at −80° C. They were diluted 10 times with sodium phosphate buffer (620 mosm, pH 7.50) and were subsequently diluted with water to give concentrations of AAMU and 1X no higher than 3×10^−6 M in the ELISA. All the pipettings were done with an eight-channel pipette, except those of the antibody and sample solutions. Starting with the last well, 100 μL of a carbonate buffer (100 mM, pH 9.6) containing 2.5 μg mL^−1 antibodies was pipetted. After 90 min. at room temperature, the wells were washed three times with 100 μL of TPB: isotonic sodium phosphate buffer (310 mosm, pH 7.50) containing 0.05% Tween™ 20.\n(§4) After the initial wash, unoccupied sites were blocked by incubation for 90 min. at room temperature with 100 μL TBP containing 3% BSA. The wells were washed four times with 100 μL TPB. […] The microplate was gently shaken with an orbital shaker at room temperature for 3-4 hours. The wells were washed three times with 100 μL with TPB containing 1% BSA and three times with water containing 0.05% Tween™ 20. To the washed plate was added 150 μL of a substrate buffer composed of citric acid (25 mM) and sodium phosphate dibasic buffer (50 mM, pH 5.0) containing 0.06% hydrogen peroxide and 0.04% o-phenylenediamine hydrochloride. After 20 min. at room temperature with shaking, the reaction was stopped with 50 μL of 2.5 N HCl.\n(§5) The cross reactivities of AAMU-Ab and 1X-Ab were tested using a wide variety of caffeine metabolites and structural analogs (Table 3 below)."}, "1X-Ab": {"system": "1X-Ab", "assay": "Competitive antigen ELISA, cross-reactivity of 1X-Ab", "assay_type": "binding, rabbit", "conditions": "0 = absence of inhibition or inhibition no higher than 40% at 5 × 10^−3 M", "method": "as §1, §2, §3, §4, §5"}, "[2]": {"conditions": "co-administration with ritonavir; cited from earlier work"}, "[3]": {"conditions": "in vivo; cited from earlier work"}}, "note": "Where two headings read alike, the source gives them in different places."}
{"smiles": "COc1ccc2c(c1)[C@]13CCCC[C@@H]1[C@H](C2)N(C)CC3", "note": "[Dextromethorphan]", "values": [{"measurement": "mean performance+/−SE", "setting": "[1]; EMs (extensive metabolizers)", "result": "95+/−0.5%"}, {"measurement": "mean performance+/−SE", "setting": "[1]; PMs (poor metabolizers)", "result": "86+/−6%"}]}
{"smiles": "Nc1nc2nc[nH]c2c(=O)[nH]1", "note": "[Guanine]", "values": [{"measurement": "% Cross-Reaction AAMU-Ab", "setting": "AAMU-Ab", "result": 0, "unit": "%"}, {"measurement": "% Cross-Reaction 1X-Ab", "setting": "1X-Ab", "result": 0, "unit": "%"}]}
{"smiles": "Cn1c(=O)[nH]c2nc[nH]c2c1=O", "note": "[1-Methyl Xanthine (1X), 1-Methyl Xanthine]", "values": [{"measurement": "% Cross-Reaction AAMU-Ab", "setting": "AAMU-Ab", "result": 0, "unit": "%"}, {"measurement": "% Cross-Reaction 1X-Ab", "setting": "1X-Ab", "result": 100, "unit": "%"}]}
{"smiles": "Cn1c(=O)[nH]c2[nH]c(=O)[nH]c2c1=O", "note": "[1-Methyluric acid]", "values": [{"measurement": "% Cross-Reaction AAMU-Ab", "setting": "AAMU-Ab", "result": 0, "unit": "%"}, {"measurement": "% Cross-Reaction 1X-Ab", "setting": "1X-Ab", "result": 11, "unit": "%"}]}
{"smiles": "CC(=O)Nc1c(N)n(C)c(=O)[nH]c1=O", "note": "[5-Acetamino-6-amino-1-methyluracil]", "values": [{"measurement": "% Cross-Reaction AAMU-Ab", "setting": "AAMU-Ab", "result": 100, "unit": "%"}, {"measurement": "% Cross-Reaction 1X-Ab", "setting": "1X-Ab", "result": 0, "unit": "%"}]}
{"smiles": "Cn1c(=O)[nH]c(=O)c2[nH]cnc21", "note": "[3-Methyl Xanthine]", "values": [{"measurement": "% Cross-Reaction AAMU-Ab", "setting": "AAMU-Ab", "result": 0, "unit": "%"}, {"measurement": "% Cross-Reaction 1X-Ab", "setting": "1X-Ab", "result": 0, "unit": "%"}]}
{"smiles": "CC(=O)Nc1c(N)[nH]c(=O)[nH]c1=O", "note": "[5-Acetamino-6-amino-uracil]", "values": [{"measurement": "% Cross-Reaction AAMU-Ab", "setting": "AAMU-Ab", "result": 0.6, "unit": "%"}, {"measurement": "% Cross-Reaction 1X-Ab", "setting": "1X-Ab", "result": 0, "unit": "%"}]}
{"smiles": "O=c1cc[nH]c(=O)[nH]1", "note": "[Uracil]", "values": [{"measurement": "% Cross-Reaction AAMU-Ab", "setting": "AAMU-Ab", "result": 0, "unit": "%"}, {"measurement": "% Cross-Reaction 1X-Ab", "setting": "1X-Ab", "result": 0, "unit": "%"}]}
{"smiles": "CCOC(=O)C1(c2ccccc2)CCNCC1", "note": "[normeperidine]", "values": [{"measurement": "Effect (on drug concentration)", "setting": "[2]", "result": "up normeperidine"}]}
{"smiles": "Cc1cn([C@H]2C[C@H](N=[N+]=[N-])[C@@H](CO)O2)c(=O)[nH]c1=O", "note": "[ZDV, zidovudine]", "values": [{"measurement": "Adverse event: Abdominal Pain", "setting": "[3]", "result": 5.9, "unit": "%"}, {"measurement": "Adverse event: Anorexia", "setting": "[3]", "result": 4.2, "unit": "%"}, {"measurement": "Adverse event: Anxiety", "setting": "[3]", "result": 0.8, "unit": "%"}, {"measurement": "Adverse event: Arthralgia", "setting": "[3]", "result": 0.0, "unit": "%"}, {"measurement": "Adverse event: Asthenia", "setting": "[3]", "result": 11.8, "unit": "%"}, {"measurement": "Adverse event: Circumoral Paresthesia", "setting": "[3]", "result": 0.0, "unit": "%"}, {"measurement": "Adverse event: Confusion", "setting": "[3]", "result": 0.0, "unit": "%"}, {"measurement": "Adverse event: Constipation", "setting": "[3]", "result": 0.8, "unit": "%"}, {"measurement": "Adverse event: Depression", "setting": "[3]", "result": 2.5, "unit": "%"}, {"measurement": "Adverse event: Diarrhea", "setting": "[3]", "result": 2.5, "unit": "%"}, {"measurement": "Adverse event: Dizziness", "setting": "[3]", "result": 3.4, "unit": "%"}, {"measurement": "Adverse event: Dyspepsia", "setting": "[3]", "result": 1.7, "unit": "%"}, {"measurement": "Adverse event: Fecal Incontinence", "setting": "[3]", "result": 0.0, "unit": "%"}, {"measurement": "Adverse event: Fever", "setting": "[3]", "result": 1.7, "unit": "%"}, {"measurement": "Adverse event: Flatulence", "setting": "[3]", "result": 1.7, "unit": "%"}, {"measurement": "Adverse event: Headache", "setting": "[3]", "result": 6.7, "unit": "%"}, {"measurement": "Adverse event: Insomnia", "setting": "[3]", "result": 0.8, "unit": "%"}, {"measurement": "Adverse event: Local Throat Irritation", "setting": "[3]", "result": 0.8, "unit": "%"}, {"measurement": "Adverse event: Malaise", "setting": "[3]", "result": 3.4, "unit": "%"}, {"measurement": "Adverse event: Myalgia", "setting": "[3]", "result": 0.8, "unit": "%"}, {"measurement": "Adverse event: Nausea", "setting": "[3]", "result": 26.1, "unit": "%"}, {"measurement": "Adverse event: Nocturia", "setting": "[3]", "result": 0.0, "unit": "%"}, {"measurement": "Adverse event: Pain (unspecified)", "setting": "[3]", "result": 0.8, "unit": "%"}, {"measurement": "Adverse event: Paresthesia", "setting": "[3]", "result": 0.0, "unit": "%"}, {"measurement": "Adverse event: Peripheral Paresthesia", "setting": "[3]", "result": 0.8, "unit": "%"}, {"measurement": "Adverse event: Pharyngitis", "setting": "[3]", "result": 0.0, "unit": "%"}, {"measurement": "Adverse event: Rash", "setting": "[3]", "result": 0.8, "unit": "%"}, {"measurement": "Adverse event: Somnolence", "setting": "[3]", "result": 0.0, "unit": "%"}, {"measurement": "Adverse event: Sweating", "setting": "[3]", "result": 1.7, "unit": "%"}, {"measurement": "Adverse event: Syncope", "setting": "[3]", "result": 0.8, "unit": "%"}, {"measurement": "Adverse event: Taste Perversion", "setting": "[3]", "result": 8.4, "unit": "%"}, {"measurement": "Adverse event: Thinking Abnormal", "setting": "[3]", "result": 0.8, "unit": "%"}, {"measurement": "Adverse event: Vasodilation", "setting": "[3]", "result": 0.8, "unit": "%"}, {"measurement": "Adverse event: Vomiting", "setting": "[3]", "result": 12.6, "unit": "%"}, {"measurement": "Adverse event: Weight Loss", "setting": "[3]", "result": 0.0, "unit": "%"}]}
{"smiles": "Cn1cnc2[nH]c(=O)[nH]c(=O)c21", "note": "[7-Methyl Xanthine]", "values": [{"measurement": "% Cross-Reaction AAMU-Ab", "setting": "AAMU-Ab", "result": 0, "unit": "%"}, {"measurement": "% Cross-Reaction 1X-Ab", "setting": "1X-Ab", "result": 0, "unit": "%"}]}
{"smiles": "O=c1[nH]c(=O)c2[nH]c(=O)[nH]c2[nH]1", "note": "[Uric acid]", "values": [{"measurement": "% Cross-Reaction AAMU-Ab", "setting": "AAMU-Ab", "result": 0, "unit": "%"}, {"measurement": "% Cross-Reaction 1X-Ab", "setting": "1X-Ab", "result": 0, "unit": "%"}]}
{"smiles": "CC(=O)N1CCN(c2ccc(OCC3COC(Cn4ccnc4)(c4ccc(Cl)cc4Cl)O3)cc2)CC1", "note": "(centres unmarked) [Ketoconazole]", "values": [{"measurement": "Effect (on drug concentration)", "setting": "[2]", "result": "up ketoconazole"}]}
{"smiles": "Cc1nc2[nH]c(=O)[nH]c(=O)c2[nH]1", "note": "[8-Methyl Xanthine]", "values": [{"measurement": "% Cross-Reaction AAMU-Ab", "setting": "AAMU-Ab", "result": 0, "unit": "%"}, {"measurement": "% Cross-Reaction 1X-Ab", "setting": "1X-Ab", "result": 0, "unit": "%"}]}
